From article PMC9281440, “In Vivo Distribution and Therapeutic Efficacy of Radioiodine-Labeled pH-Low Insertion Peptide Variant 3 in a Mouse Model of Breast Cancer” (Molecular Imaging, 2022)
Peptide text beside a SMILES is read from it.

Assays:
[1] = In vitro stability of radiolabeled peptides in serum at 37°C; assay type: in vitro ADME; settings: 37°C in serum, radiochemical purity, thin-layer chromatography
Method: WT-pHLIP and Var3-pHLIP were labeled with ^125I for in vivo imaging experiments, and Var3-pHLIP was labeled with ^131I for therapeutic efficacy experiments. Radioactive iodine binds to tyrosine residues in pHLIPs. Peptides were dissolved in 200 μL of 0.02 M PBS (pH 7.4) to reach a concentration of 1 mg/mL and mixed with 10 μL of Na^125I (74 MBq) or 20 μL of Na^131I (925 MBq). Chloramine-T (20 μL, 5 mg/mL) was added to the test tubes and mixed for 70 s at room temperature. The reaction was stopped by adding 200 μL of sodium metabisulfite (5 mg/mL). The peptides were eluted in ethanol through a C18 column equilibrated with 20 mL of 100% ethanol and 20 mL of distilled water. The radioactive purity of ^125I-WT-pHLIP, ^125I-Var3-pHLIP, and ^131I-Var3-pHLIP was determined using thin-layer chromatography. Furthermore, the radiochemical purity of ^125I-WT-pHLIP, ^125I-Var3-pHLIP, and ^131I-Var3-pHLIP was measured, and chemical stability was determined at 24 and 48 h at room temperature (25°C) in PBS and at 37°C in serum.

MDA-MB-231 cells = assay: In vitro cell binding assay of 125I-labeled peptides; assay type: cell-based, human; settings: 37°C, mean ± SD, triplicate; for binding fraction to cells, B/(B + F) × 100%: γ counter
Method: Cells were incubated with ^125I-WT-pHLIP or ^125I-Var3-pHLIP for 1 h at 37°C in the medium at different pH values ranging from 6.2 to 7.8 (6.2, 6.6, 7.0, 7.4, 7.8). At the same time, cells in the medium at pH 6.2 were further incubated with ^125I-labeled peptide with an excess of unlabeled peptide (25 μg/well). The supernatant was aspirated into a tube. The cells were then washed twice with PBS of the corresponding pH to remove unbound radioactivity. The wash solution was also added to the supernatant tube containing free radioactivity (F). The cells with bound radioactivity (B) were completely lysed with 300 μl sodium hydroxide and aspirated into a cell tube. The radioactive counts of the cell and supernatant tube were measured by a γ counter. The cell binding fraction of the ^125I-labeled peptides was calculated as B/(B + F) × 100%. All experiments were performed in triplicate.

With `CC(C)C[C@H](NC(=O)[C@H](Cc1ccc(O)c(I)c1)NC(=O)[C@H](C)NC(=O)[C@H](CCCNC(=N)N)NC(=O)[C@H](Cc1c[nH]c2ccccc12)NC(=O)[C@@H]1CCCN1C(=O)[C@H](CC(N)=O)NC(=O)[C@H](CCC(N)=O)NC(=O)[C@H](CC(=O)O)NC(=O)[C@H](CC(=O)O)NC(=O)[C@H](CS)NC(=O)[C@H](C)N)C(=O)N[C@@H](CC(=O)O)C(=O)N[C@@H](CC(C)C)C(=O)N[C@@H](CC(C)C)C(=O)N[C@@H](Cc1ccccc1)C(=O)N1CCC[C@H]1C(=O)N[C@H](C(=O)N[C@@H](CC(=O)O)C(=O)N[C@H](C(=O)N[C@@H](CC(C)C)C(=O)N[C@@H](CC(C)C)C(=O)N[C@@H](CC(C)C)C(=O)N[C@@H](CC(=O)O)C(=O)N[C@@H](CC(C)C)C(=O)N[C@@H](CC(C)C)C(=O)N[C@@H](Cc1c[nH]c2ccccc12)C(=O)N[C@@H](CCCCN)C(=O)O)[C@@H](C)O)[C@@H](C)O` [125I-Var3-pHLIP] (HELM PEPTIDE1{A.C.D.D.Q.N.P.W.R.A.[O=C([C@H](Cc1ccc(O)c(I)c1)N[*:1])[*:2]].L.D.L.L.F.P.T.D.T.L.L.L.D.L.L.W.K}$$$$V2.0; N-terminus and C-terminus assumed) the stability ([1]; 24 h) was 83.2%, the stability ([1]; 48 h) was 82.6% and the “binding fraction to cells, B/(B + F) × 100%” value (MDA-MB-231 cells; pH 6.2, 1 h) was 24.90 ± 0.96%. The “binding fraction to cells with an excess of unlabeled peptide” value (MDA-MB-231 cells; pH 6.2, excess unlabeled peptide 25 μg/well) was 1.50 ± 0.11%, the “binding fraction to cells, B/(B + F) × 100%” value (MDA-MB-231 cells; pH 6.6, 1 h) was 23.88 ± 0.55% and the “binding fraction to cells, B/(B + F) × 100%” value (MDA-MB-231 cells; pH 7.0, 1 h) was 23.40 ± 0.44%. The “binding fraction to cells, B/(B + F) × 100%” value (MDA-MB-231 cells; pH 7.4, 1 h) was 12.3 ± 0.80% and the “binding fraction to cells, B/(B + F) × 100%” value (MDA-MB-231 cells; pH 7.8, 1 h) was 1.30 ± 0.10%.
